According to ChEMBL document CHEMBL3994622, “Design and synthesis of new RAF kinase-inhibiting antiproliferative quinoline derivatives. Part 2: Diarylurea derivatives” (Eur J Med Chem, 2017):

Columns and labels:
Type in all cases: functional
NCI-H522 = test: Growth inhibition of human NCI-H522 cells assessed as cell growth at 10 uM incubated for 48 hrs by sulforhodamine B assay relative to control; details: NCI-H522, 48 h, read-out: Activity
HOP-92 [1] = test: Growth inhibition of human HOP92 cells assessed as cell growth at 10 uM incubated for 48 hrs by sulforhodamine B assay relative to control; details: HOP-92, 48 h, read-out: Activity
HCT-116 [2] = test: Growth inhibition of human HCT116 cells assessed as cell growth at 10 uM incubated for 48 hrs by sulforhodamine B assay relative to control; details: HCT-116, 48 h, read-out: Activity
SNB-75 = test: Growth inhibition of human SNB75 cells assessed as cell growth at 100 uM incubated for 48 hrs by sulforhodamine B assay relative to control; details: SNB-75, 48 h, read-out: Activity
HOP-62 = test: Growth inhibition of human HOP62 cells assessed as cell growth at 10 uM incubated for 48 hrs by sulforhodamine B assay relative to control; details: HOP-62, 48 h, read-out: Activity
CAKI-1 = test: Growth inhibition of human Caki1 cells assessed as cell growth at 100 uM incubated for 48 hrs by sulforhodamine B assay relative to control; details: CAKI-1, 48 h, read-out: Activity
SF-539 = test: Growth inhibition of human SF539 cells assessed as cell growth at 0.1 uM incubated for 48 hrs by sulforhodamine B assay relative to control; details: SF-539, 48 h, read-out: Activity
SK-MEL-5 = test: Growth inhibition of human SK-MEL-5 cells assessed as cell growth at 1 uM incubated for 48 hrs by sulforhodamine B assay relative to control; details: SK-MEL-5, 48 h, read-out: Activity
DU-145 [3] = test: Growth inhibition of human DU145 cells assessed as cell growth at 1 uM incubated for 48 hrs by sulforhodamine B assay relative to control; details: DU-145, 48 h, read-out: Activity
NCI-H322M = test: Growth inhibition of human NCI-H322M cells assessed as cell growth at 0.01 uM incubated for 48 hrs by sulforhodamine B assay relative to control; details: read-out: Activity
UACC-257 = test: Growth inhibition of human UACC257 cells assessed as cell growth at 10 uM incubated for 48 hrs by sulforhodamine B assay relative to control; details: UACC-257, 48 h, read-out: Activity
UACC-62 [4] = test: Growth inhibition of human UACC62 cells assessed as cell growth at 100 uM incubated for 48 hrs by sulforhodamine B assay relative to control; details: UACC-62, 48 h, read-out: Activity
MOLT-4 [5] = test: Growth inhibition of human MOLT4 cells assessed as cell growth at 0.01 uM incubated for 48 hrs by sulforhodamine B assay relative to control; details: MOLT-4, 48 h, read-out: Activity
M14 = test: Growth inhibition of human M14 cells assessed as cell growth at 0.01 uM incubated for 48 hrs by sulforhodamine B assay relative to control; details: M14, 48 h, read-out: Activity
A549 = test: Growth inhibition of human A549/ATCC cells assessed as cell growth at 1 uM incubated for 48 hrs by sulforhodamine B assay relative to control; details: A549, 48 h, read-out: Activity
OVCAR-3 [6] = test: Growth inhibition of human OVCAR3 cells assessed as cell growth at 0.01 uM incubated for 48 hrs by sulforhodamine B assay relative to control; details: OVCAR-3, 48 h, read-out: Activity
MOLT-4 [7] = test: Growth inhibition of human MOLT4 cells assessed as cell growth at 1 uM incubated for 48 hrs by sulforhodamine B assay relative to control; details: MOLT-4, 48 h, read-out: Activity
K562 = test: Growth inhibition of human K562 cells assessed as cell growth at 0.1 uM incubated for 48 hrs by sulforhodamine B assay relative to control; details: K562, 48 h, read-out: Activity
SW-620 = test: Growth inhibition of human SW620 cells assessed as cell growth at 1 uM incubated for 48 hrs by sulforhodamine B assay relative to control; details: SW-620, 48 h, read-out: Activity
786-0 = test: Growth inhibition of human 786-0 cells assessed as cell growth at 0.01 uM incubated for 48 hrs by sulforhodamine B assay relative to control; details: 786-0, 48 h, read-out: Activity
OVCAR-3 [8] = test: Growth inhibition of human OVCAR3 cells assessed as cell growth at 0.1 uM incubated for 48 hrs by sulforhodamine B assay relative to control; details: OVCAR-3, 48 h, read-out: Activity
IGROV-1 = test: Growth inhibition of human IGROV1 cells assessed as cell growth at 0.3 uM incubated for 48 hrs by sulforhodamine B assay relative to control; details: IGROV-1, 48 h, read-out: Activity
HOP-92 [9] = test: Growth inhibition of human HOP92 cells assessed as cell growth at 3 uM incubated for 48 hrs by sulforhodamine B assay relative to control; details: HOP-92, 48 h, read-out: Activity
RPMI-8226 = test: Growth inhibition of human RPMI8226 cells assessed as cell growth at 3 uM incubated for 48 hrs by sulforhodamine B assay relative to control; details: RPMI-8226, 48 h, read-out: Activity
UACC-62 [10] = test: Growth inhibition of human UACC62 cells assessed as cell growth at 0.03 uM incubated for 48 hrs by sulforhodamine B assay relative to control; details: UACC-62, 48 h, read-out: Activity
MDA-MB-435 = test: Growth inhibition of human MDA-MB-435 cells assessed as cell growth at 30 uM incubated for 48 hrs by sulforhodamine B assay relative to control; details: MDA-MB-435, 48 h, read-out: Activity
HCT-116 [11] = test: Growth inhibition of human HCT116 cells assessed as cell growth at 0.3 uM incubated for 48 hrs by sulforhodamine B assay relative to control; details: HCT-116, 48 h, read-out: Activity
SF-268 = test: Growth inhibition of human SF268 cells assessed as cell growth at 0.3 uM incubated for 48 hrs by sulforhodamine B assay relative to control; details: SF-268, 48 h, read-out: Activity
MCF7 = test: Growth inhibition of human MCF7 cells assessed as cell growth at 30 uM incubated for 48 hrs by sulforhodamine B assay relative to control; details: MCF7, 48 h, read-out: Activity
Hs-578T [12] = test: Growth inhibition of human Hs 578T cells assessed as cell growth at 30 uM incubated for 48 hrs by sulforhodamine B assay relative to control; details: read-out: Activity
HOP-92 [13] = test: Growth inhibition of human HOP92 cells assessed as cell growth at 0.03 uM incubated for 48 hrs by sulforhodamine B assay relative to control; details: HOP-92, 48 h, read-out: Activity
DU-145 [14] = test: Growth inhibition of human DU145 cells assessed as cell growth at 0.003 uM incubated for 48 hrs by sulforhodamine B assay relative to control; details: DU-145, 48 h, read-out: Activity
OVCAR-3 [15] = test: Growth inhibition of human OVCAR3 cells assessed as cell growth at 3 uM incubated for 48 hrs by sulforhodamine B assay relative to control; details: OVCAR-3, 48 h, read-out: Activity
CCRF-CEM = test: Growth inhibition of human CCRF-CEM cells assessed as cell growth at 0.3 uM incubated for 48 hrs by sulforhodamine B assay relative to control; details: read-out: Activity
Hs-578T [16] = test: Growth inhibition of human Hs 578T cells assessed as cell growth at 0.003 uM incubated for 48 hrs by sulforhodamine B assay relative to control; details: read-out: Activity

Row | SMILES | growth at 10 µM (NCI-H522) [%] | growth at 10 µM (HOP-92 [1]) [%] | growth at 10 µM (HCT-116 [2]) [%] | growth at 100 µM (SNB-75) [%] | growth at 10 µM (HOP-62) [%] | growth at 100 µM (CAKI-1) [%] | growth at 0.1 µM (SF-539) [%] | growth at 1 µM (SK-MEL-5) [%] | growth at 1 µM (DU-145 [3]) [%] | growth at 0.01 µM (NCI-H322M) [%] | growth at 10 µM (UACC-257) [%] | growth at 100 µM (UACC-62 [4]) [%] | growth at 0.01 µM (MOLT-4 [5]) [%] | growth at 0.01 µM (M14) [%] | growth at 1 µM (A549) [%] | growth at 0.01 µM (OVCAR-3 [6]) [%] | growth at 1 µM (MOLT-4 [7]) [%] | growth at 0.1 µM (K562) [%] | growth at 1 µM (SW-620) [%] | growth at 0.01 µM (786-0) [%] | other results
1 | COc1cc2cc(Oc3ccc(NC(=O)Nc4ccc(Cl)c(Cl)c4)cc3)c(C)nc2cc1OC | -5 | -41 | 2 | -59 | 8 | -64 | 103 | 91 | 102 | 100 | -23 | -63 | 108 | 84 | 66 | 109 | 90 | 107 | 107 | 83 | growth at 0.1 µM (OVCAR-3 [8]): 116%
2 | COc1cc2cc(Oc3ccc(NC(=O)Nc4ccc(Cl)c(C(F)(F)F)c4)cc3)c(C)nc2cc1OC | – | – | – | – | – | – | – | – | – | – | – | – | – | – | – | – | – | – | – | – | growth at 0.3 µM (IGROV-1): 117%; growth at 3 µM (HOP-92 [9]): -21%; growth at 3 µM (RPMI-8226): -36%; growth at 0.03 µM (UACC-62 [10]): 92%; growth at 30 µM (MDA-MB-435): -46%; growth at 0.3 µM (HCT-116 [11]): 91%; growth at 0.3 µM (SF-268): 100%; growth at 30 µM (MCF7): -79%; growth at 30 µM (Hs-578T [12]): -53%; growth at 0.03 µM (HOP-92 [13]): 89%; growth at 0.003 µM (DU-145 [14]): 100%; growth at 3 µM (OVCAR-3 [15]): 14%; growth at 0.3 µM (CCRF-CEM): 101%; growth at 0.003 µM (Hs-578T [16]): 83%
3 | COc1cc2cc(Oc3ccc(NC(=O)Nc4cc(C(F)(F)F)cc(C(F)(F)F)c4)cc3)c(C)nc2cc1OC | -71 | -38 | -84 | -44 | -82 | -60 | 94 | 84 | 82 | 94 | -38 | -79 | 104 | 92 | 65 | 104 | 55 | 108 | 81 | 89 | growth at 0.1 µM (OVCAR-3 [8]): 101%
4 | Cc1nc2cc(O)c(O)cc2cc1Oc1ccc(NC(=O)Nc2ccc(Cl)c(Cl)c2)cc1 | – | – | – | – | – | – | – | – | – | – | – | – | – | – | – | – | – | – | – | – | growth at 0.3 µM (IGROV-1): 103%; growth at 3 µM (HOP-92 [9]): 48%; growth at 3 µM (RPMI-8226): 92%; growth at 0.03 µM (UACC-62 [10]): 97%; growth at 30 µM (MDA-MB-435): 7%; growth at 0.3 µM (HCT-116 [11]): 90%; growth at 0.3 µM (SF-268): 107%; growth at 30 µM (MCF7): 1%; growth at 30 µM (Hs-578T [12]): 16%; growth at 0.03 µM (HOP-92 [13]): 80%; growth at 0.003 µM (DU-145 [14]): 105%; growth at 3 µM (OVCAR-3 [15]): 107%; growth at 0.3 µM (CCRF-CEM): 98%; growth at 0.003 µM (Hs-578T [16]): 93%
